Test results taken from PubChem BioAssay AID256 (DTP/NCI, 2004).
Where “and” joins values, the source holds several entries; their conditions need not be identical. Identical values can stand only once. Toxic doses and inconclusive results are not listed. Rule for the calls: active = survival T/C of 150% or more; inactive = T/C below 125% in these data.

Test system: CD2F1 mice, L1210 leukemia ip, survival T/C
Assay: NCI In Vivo Anticancer Drug Screen. Data for tumor model L1210 Leukemia (intraperitoneal) in CD2F1 (CDF1) mice
Conditions: endpoint: mean survival time, higher = longer survival
Summary of the method: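 In this screen, transplantable tumors were grown in mice given either the compound or its vehicle. Results were expressed as the treated measurement relative to the control measurement.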

[1] = dose: 100.0 mg/kg/injection, schedule: Q01DX009 (ip), vehicle: saline with Tween-80
[2] = dose: 200.0 mg/kg/injection, schedule: Q01DX009 (ip), vehicle: saline with Tween-80
[3] = dose: 400.0 mg/kg/injection, schedule: Q01DX009 (ip), vehicle: saline with Tween-80
[4] = dose: 100.0 mg/kg/injection, schedule: Q04DX003 (ip), vehicle: saline with Tween-80
[5] = dose: 200.0 mg/kg/injection, schedule: Q04DX003 (ip), vehicle: saline with Tween-80
[6] = dose: 12.5 mg/kg/injection, schedule: Q04DX003 (ip), vehicle: saline with Tween-80
[7] = dose: 25.0 mg/kg/injection, schedule: Q04DX003 (ip), vehicle: saline with Tween-80
[8] = dose: 50.0 mg/kg/injection, schedule: Q04DX003 (ip), vehicle: saline with Tween-80
[9] = dose: 100.0 mg/kg/injection, schedule: Q01DX001 (ip), vehicle: Klucel (hydroxypropylcellulose) (HPC)
[10] = dose: 200.0 mg/kg/injection, schedule: Q01DX001 (ip), vehicle: Klucel (hydroxypropylcellulose) (HPC)
[11] = dose: 400.0 mg/kg/injection, schedule: Q01DX001 (ip), vehicle: Klucel (hydroxypropylcellulose) (HPC)
[12] = dose: 50.0 mg/kg/injection, schedule: Q01DX009 (ip), vehicle: saline with Tween-80
[13] = dose: 100.0 mg/kg/injection, schedule: Q01DX001 (ip), vehicle: saline
[14] = dose: 200.0 mg/kg/injection, schedule: Q01DX001 (ip), vehicle: saline
[15] = dose: 400.0 mg/kg/injection, schedule: Q01DX001 (ip), vehicle: saline
[16] = dose: 100.0 mg/kg/injection, schedule: Q01DX009 (ip), vehicle: saline
[17] = dose: 100.0 mg/kg/injection, schedule: Q04DX003 (ip), vehicle: saline
[18] = dose: 200.0 mg/kg/injection, schedule: Q01DX009 (ip), vehicle: saline
[19] = dose: 400.0 mg/kg/injection, schedule: Q01DX009 (ip), vehicle: saline

Measured: T/C

CN(C)CC(=O)c1ccc(O)c(O)c1
inactive: dose: 16.0 mg/kg/injection, schedule: Q03HX008 (ip), vehicle: saline 95 % of control | dose: 16.0 mg/kg/injection, schedule: Q03HX016 (ip), vehicle: saline 97 % of control | dose: 32.0 mg/kg/injection, schedule: Q03HX008 (ip), vehicle: saline 96 % of control | dose: 32.0 mg/kg/injection, schedule: Q03HX016 (ip), vehicle: saline 106 % of control | dose: 64.0 mg/kg/injection, schedule: Q01DX009 (sc), vehicle: saline 86 % of control | dose: 64.0 mg/kg/injection, schedule: Q03HX008 (ip), vehicle: saline 110 % of control | dose: 64.0 mg/kg/injection, schedule: Q03HX016 (ip), vehicle: saline 111 % of control | dose: 64.0 mg/kg/injection, schedule: Q04DX003 (ip), vehicle: saline 101 % of control | dose: 128.0 mg/kg/injection, schedule: Q01DX001 (oral), vehicle: saline 98 % of control | dose: 128.0 mg/kg/injection, schedule: Q01DX001 (sc), vehicle: saline 98 % of control | dose: 128.0 mg/kg/injection, schedule: Q01DX009 (oral), vehicle: saline 93 % of control | dose: 128.0 mg/kg/injection, schedule: Q01DX009 (sc), vehicle: saline 86 % of control | dose: 128.0 mg/kg/injection, schedule: Q03HX008 (ip), vehicle: saline 118 % of control | dose: 128.0 mg/kg/injection, schedule: Q03HX016 (ip), vehicle: saline 122 % of control | dose: 128.0 mg/kg/injection, schedule: Q04DX003 (ip), vehicle: saline 107 % of control | dose: 128.0 mg/kg/injection, schedule: Q08DX002 (ip), vehicle: saline 105 % of control | dose: 256.0 mg/kg/injection, schedule: Q01DX001 (oral), vehicle: saline 101 % of control | dose: 256.0 mg/kg/injection, schedule: Q01DX001 (sc), vehicle: saline 96 % of control | dose: 256.0 mg/kg/injection, schedule: Q01DX009 (oral), vehicle: saline 92 % of control | dose: 256.0 mg/kg/injection, schedule: Q01DX009 (sc), vehicle: saline 86 % of control | dose: 256.0 mg/kg/injection, schedule: Q04DX003 (ip), vehicle: saline 107 % of control | dose: 256.0 mg/kg/injection, schedule: Q08DX002 (ip), vehicle: saline 103 % of control | dose: 512.0 mg/kg/injection, schedule: Q01DX001 (oral), vehicle: saline 98 % of control | dose: 512.0 mg/kg/injection, schedule: Q01DX001 (sc), vehicle: saline 95 % of control | dose: 512.0 mg/kg/injection, schedule: Q01DX009 (oral), vehicle: saline 91 % of control | dose: 512.0 mg/kg/injection, schedule: Q01DX009 (sc), vehicle: saline 86 % of control | dose: 512.0 mg/kg/injection, schedule: Q04DX003 (ip), vehicle: saline 107 % of control | dose: 512.0 mg/kg/injection, schedule: Q08DX002 (ip), vehicle: saline 105 % of control | dose: 1024.0 mg/kg/injection, schedule: Q01DX001 (oral), vehicle: saline 96 % of control | dose: 1024.0 mg/kg/injection, schedule: Q01DX001 (sc), vehicle: saline 107 % of control | dose: 1024.0 mg/kg/injection, schedule: Q01DX009 (oral), vehicle: saline 93 % of control | dose: 1024.0 mg/kg/injection, schedule: Q08DX002 (ip), vehicle: saline 110 % of control

CCOC(=O)CCC1(C(=O)OC)C(=O)CCCCC/C=C/1C(=O)OC (stereo not drawn)
inactive: [1] 101 % of control | [2] 93 % of control | [3] 96 % of control

CCOC(=O)N[C@H]1CCc2cc(OC)c(OC)c(OC)c2-c2ccc(SC)c(=O)cc21
inactive: dose: 0.38 mg/kg/injection, schedule: Q01DX009 (ip), vehicle: other 103 % of control | dose: 0.75 mg/kg/injection, schedule: Q01DX009 (ip), vehicle: other 108 % of control | dose: 1.5 mg/kg/injection, schedule: Q01DX009 (ip), vehicle: other 114 % of control

CCOC(=O)C(O)(CC)CCC(C)C (stereo not drawn)
inactive: [4] 105 % of control | [5] 86 % of control

FC(F)(F)Cc1cccc(C(F)(F)F)c1
inactive: [4] 109 % of control | [5] 108 % of control | dose: 400.0 mg/kg/injection, schedule: Q04DX003 (ip), vehicle: saline with Tween-80 100 % of control

NC(N)=N/N=C/c1ccc(Cl)c(Cl)c1
inactive: [6] 105 % of control | [7] 97 % of control | [8] 94 % of control

CCOC(=O)C(C)(C(=O)OCC)c1cc2ccccc2c2ccccc12
inactive: [9] 104 % of control | [10] 104 % of control | [11] 104 % of control

NNC(=O)c1ccc([N+](=O)[O-])o1
inactive: dose: 37.5 mg/kg/injection, schedule: Q01DX009 (ip), vehicle: saline with Tween-80 97 % of control | [4] 110 % of control

NNC(=S)N/N=C/c1ccccn1
inactive: dose: 1.56 mg/kg/injection, schedule: Q01DX009 (ip), vehicle: saline 93 % of control and 98 % of control | dose: 3.12 mg/kg/injection, schedule: Q01DX009 (ip), vehicle: saline 98 % of control and 100 % of control | dose: 6.25 mg/kg/injection, schedule: Q01DX009 (ip), vehicle: saline with Tween-80 105 % of control | dose: 6.25 mg/kg/injection, schedule: Q01DX009 (ip), vehicle: saline 115 % of control | dose: 6.25 mg/kg/injection, schedule: Q04DX003 (ip), vehicle: saline with Tween-80 118 % of control | dose: 6.3 mg/kg/injection, schedule: Q01DX009 (oral), vehicle: saline 92 % of control | dose: 12.5 mg/kg/injection, schedule: Q01DX009 (oral), vehicle: saline 98 % of control | [6] 98 % of control | [7] 102 % of control

O=c1cc[nH]cc1[N+](=O)[O-]
inactive: [12] 101 % of control | [1] 101 % of control | dose: 100.0 mg/kg/injection, schedule: Q04DX003 (ip), vehicle: saline sonified 97 % of control | [2] 100 % of control | dose: 200.0 mg/kg/injection, schedule: Q04DX003 (ip), vehicle: saline sonified 95 % of control

CCCCCCCCCCCCCCCCOC(=O)Nc1ccc(S(=O)(=O)N(CCC)CCC)cc1
inactive: [13] 94 % of control | [14] 96 % of control | [15] 92 % of control

COC(=O)c1ccc[n+](CC(=O)c2ccccc2)c1
inactive: [12] 101 % of control | [1] 96 % of control | [2] 98 % of control

CN1NC=Nc2c1[nH]cnc2=S
inactive: dose: 75.0 mg/kg/injection, schedule: Q01DX001 (ip), vehicle: other 89 % of control | dose: 150.0 mg/kg/injection, schedule: Q01DX001 (ip), vehicle: other 96 % of control

COc1ccc(C(=O)c2no[n+]([O-])c2C(=O)c2ccc(OC)cc2)cc1
inactive: dose: 12.5 mg/kg/injection, schedule: Q01DX009 (ip), vehicle: saline with Tween-80 100 % of control | dose: 25.0 mg/kg/injection, schedule: Q01DX009 (ip), vehicle: saline with Tween-80 97 % of control | [12] 101 % of control | [1] 97 % of control and 98 % of control | [2] 98 % of control and 102 % of control | [3] 97 % of control and 110 % of control

COc1ccc(C(O)(CC(=O)O)c2ccc(OC)cc2)cc1
inactive: [13] 98 % of control | [14] 95 % of control | [15] 97 % of control

COC(=O)C/C(=C/C=C1/C(=O)ON=C1C)c1c(C)[nH]oc1=O
inactive: [16] 87 % of control | [17] 101 % of control | [18] 92 % of control | dose: 200.0 mg/kg/injection, schedule: Q04DX003 (ip), vehicle: saline 106 % of control | [19] 87 % of control | dose: 400.0 mg/kg/injection, schedule: Q04DX003 (ip), vehicle: saline 108 % of control

CC(=O)NCC(O)C(O)C(O)C(O)CO (stereo not drawn)
inactive: [16] 96 % of control | [18] 98 % of control | [19] 110 % of control

CCCCCCCCCCCCCCCCCCN=C(N)N
inactive: [9] 103 % of control | [10] 96 % of control | [11] 88 % of control

OC1c2ccccc2CCc2ccccc21
inactive: [7] 97 % of control | [8] 103 % of control | [4] 101 % of control

Cl/C=C\C[N+]12CN3CN(CN(C3)C1)C2
inactive: [17] 96 % of control
